Assays:
Type in all cases: in vivo
[1] = tested on: Echinochloa crus-galli; experiment: Pre-emergence herbicidal test, ECHCG; conditions: 21 days after spraying
Method: (§1) To evaluate their herbicidal activity, compounds according to the invention are tested using a representative range of plants:
(§2) The pre-emergence tests involve spraying a liquid formulation of the compound onto the soil in which the seeds of the plant species mentioned above has recently been sown.
(§3) The soil used in the tests is a prepared horticultural loam. The formulations used in the tests are prepared from solutions of the test compounds in acetone containing 0.4% by weight of an alkylphenol/ethylene oxide condensate available under the trade mark TRITON X-155. […] In these tests untreated sown soil are used as controls.
(§4) The herbicidal effects of the test compounds are assessed visually twenty-one days after spraying the foliage and the soil and are recorded on a 0-9 scale. A rating 0 indicates growth as untreated control, a rating 9 indicates death. An increase of 1 unit on the linear scale approximates to a 10% increase in the level of effect.

[2] = tested on: Alopecurus myosuroides; experiment: Pre-emergence herbicidal test, ALOMY; conditions: PRE, 21 days after spraying
Method: as §1, §2, §3, §4

[3] = tested on: Triticum aestivum; experiment: Post-emergence herbicidal test, TRZAW; conditions: POST, 21 days after spraying
Method: as §1
(§5) […] After spraying, the plants are placed on greenhouse benches and are cared for in the usual manner, commensurate with conventional greenhouse practices.
as §4

[4] = tested on: Stellaria media; experiment: Post-emergence herbicidal test, STEME; set-up: key to herbicidal effect (0-9 scale) STEME / herbicidal rating STEME: A rating 0 indicates growth as untreated control; a rating 9 indicates death; conditions: POST, 21 days after spraying
Method: as §1, §5, §4

[5] = tested on: Zea mays; experiment: Pre-emergence herbicidal test, ZEAMX; conditions: PRE, 21 days after spraying
Method: as §1, §2, §3, §4

[6] = tested on: Echinochloa crus-galli; experiment: Post-emergence herbicidal test, ECHCG; set-up: key: A rating 0 indicates growth as untreated control; a rating 9 indicates death; conditions: 21 days after spraying
Method: as §1, §5, §4

[7] = tested on: Zea mays; experiment: Post-emergence herbicidal test, ZEAMX; conditions: 21 days after spraying
Method: as §1, §5, §4

[8] = tested on: Setaria viridis; experiment: Pre-emergence herbicidal test, SETVI; set-up: key to herbicidal effect (0-9 scale) SETVI / herbicidal rating SETVI: A rating 0 indicates growth as untreated control; a rating 9 indicates death; conditions: PRE, 21 days after spraying
Method: as §1, §2, §3, §4

[9] = tested on: Ipomoea hederacea; experiment: Post-emergence herbicidal test, IPOHE; set-up: key to herbicidal effect (0-9 scale) IPOHE / herbicidal rating IPOHE: A rating 0 indicates growth as untreated control; a rating 9 indicates death; conditions: POST, 21 days after spraying
Method: as §1, §5, §4

[10] = tested on: Galium aparine; experiment: Pre-emergence herbicidal test, GALAP; set-up: key to herbicidal effect (0-9 scale) GALAP / herbicidal rating GALAP: A rating 0 indicates growth as untreated control; a rating 9 indicates death; conditions: PRE, 21 days after spraying
Method: as §1, §2, §3, §4

[11] = tested on: Triticum aestivum; experiment: Pre-emergence herbicidal test, TRZAW; set-up: key: A rating 0 indicates growth as untreated control; a rating 9 indicates death; conditions: 21 days after spraying
Method: as §1, §2, §3, §4

[12] = tested on: Hordeum vulgare; experiment: Pre-emergence herbicidal test, HORVW; set-up: key: A rating 0 indicates growth as untreated control; a rating 9 indicates death; conditions: 21 days after spraying
Method: as §1, §2, §3, §4

[13] = tested on: Setaria viridis; experiment: Post-emergence herbicidal test, SETVI; set-up: key to herbicidal effect (0-9 scale) SETVI / herbicidal rating SETVI: A rating 0 indicates growth as untreated control; a rating 9 indicates death; conditions: POST, 21 days after spraying
Method: as §1, §5, §4

[14] = tested on: Hordeum vulgare; experiment: Post-emergence herbicidal test, HORVW; conditions: 21 days after spraying
Method: as §1
These acetone solutions are diluted with water and the resulting formulations applied at dosage levels equivalent to about 1000, 800, 400, 250 or 100 g/ha per hectare of test compound per pot. After spraying, the plants are placed on greenhouse benches and are cared for in the usual manner, commensurate with conventional greenhouse practices.
as §4

[15] = tested on: Glycine max; experiment: Post-emergence herbicidal test, GLXMA; conditions: 21 days after spraying
Method: as §1, §5, §4

[16] = tested on: Glycine max; experiment: Pre-emergence herbicidal test, GLXMA; set-up: key to herbicidal effect (0-9 scale) GLXMA / herbicidal rating GLXMA: A rating 0 indicates growth as untreated control; a rating 9 indicates death; conditions: PRE, 21 days after spraying
Method: as §1, §2, §3, §4

[17] = tested on: Galium aparine; experiment: Post-emergence herbicidal test, GALAP; set-up: key to herbicidal effect (0-9 scale) GALAP / herbicidal rating GALAP: A rating 0 indicates growth as untreated control; a rating 9 indicates death; conditions: POST, 21 days after spraying
Method: as §1, §5, §4

[18] = tested on: Abutilon theophrasti; experiment: Pre-emergence herbicidal test, ABUTH; set-up: key to herbicidal effect (0-9 scale) ABUTH / herbicidal rating ABUTH: A rating 0 indicates growth as untreated control; a rating 9 indicates death; conditions: PRE, 21 days after spraying
Method: as §1, §2, §3, §4

[19] = tested on: Stellaria media; experiment: Pre-emergence herbicidal test, STEME; set-up: key to herbicidal effect (0-9 scale) STEME / herbicidal rating STEME: A rating 0 indicates growth as untreated control; a rating 9 indicates death; conditions: PRE, 21 days after spraying
Method: as §1, §2, §3, §4

[20] = tested on: Ipomoea hederacea; experiment: Pre-emergence herbicidal test, IPOHE; conditions: 21 days after spraying
Method: as §1, §2, §3, §4

[21] = tested on: Alopecurus myosuroides; experiment: Post-emergence herbicidal test, ALOMY; set-up: key: A rating 0 indicates growth as untreated control; a rating 9 indicates death; conditions: 21 days after spraying
Method: as §1, §5, §4

[22] = tested on: Matricaria inodora; experiment: Pre-emergence herbicidal test, MATIN; set-up: key to herbicidal effect (0-9 scale) MATIN / herbicidal rating MATIN: A rating 0 indicates growth as untreated control; a rating 9 indicates death; conditions: PRE, 21 days after spraying
Method: as §1, §2, §3, §4

[23] = tested on: Abutilon theophrasti; experiment: Post-emergence herbicidal test, ABUTH; set-up: key to herbicidal effect (0-9 scale) ABUTH / herbicidal rating ABUTH: A rating 0 indicates growth as untreated control; a rating 9 indicates death; conditions: POST, 21 days after spraying
Method: as §1, §5, §4

[24] = tested on: Matricaria inodora; experiment: Post-emergence herbicidal test, MATIN; set-up: key to herbicidal effect (0-9 scale) MATIN / herbicidal rating MATIN: A rating 0 indicates growth as untreated control; a rating 9 indicates death; conditions: POST, 21 days after spraying
Method: as §1, §5, §4

Cn1c(C(F)(F)F)cc(=O)n(-n2ccc3ccc(Br)cc32)c1=O [Example 6]
herbicidal effect (0-9 scale) ECHCG ([1]; 100 g/ha): 1 | herbicidal effect (0-9 scale) ECHCG ([1]; 400 g/ha): 5 | herbicidal effect (0-9 scale) ALOMY ([2]; 100 g/ha): 1 | herbicidal effect (0-9 scale) ALOMY ([2]; 400 g/ha): 3 | herbicidal effect (0-9 scale) TRZAW ([3]; 100 g/ha): 2 | herbicidal effect (0-9 scale) TRZAW ([3]; 400 g/ha): 3 | herbicidal effect (0-9 scale) STEME ([4]; 100 g/ha): 5 | herbicidal effect (0-9 scale) STEME ([4]; 400 g/ha): 8 | herbicidal effect (0-9 scale) ZEAMX ([5]; 100 g/ha): 2 | herbicidal effect (0-9 scale) ZEAMX ([5]; 400 g/ha): 4 | herbicidal effect (0-9 scale) ECHCG ([6]; 100 g/ha): 4 | herbicidal effect (0-9 scale) ECHCG ([6]; 400 g/ha): 8 | herbicidal effect (0-9 scale) ZEAMX ([7]; 100 g/ha): 2 | herbicidal effect (0-9 scale) ZEAMX ([7]; 400 g/ha): 3 | herbicidal effect (0-9 scale) SETVI ([8]; 100 g/ha): 5 | herbicidal effect (0-9 scale) SETVI ([8]; 400 g/ha): 8 | herbicidal effect (0-9 scale) IPOHE ([9]; 100 g/ha): 8 | herbicidal effect (0-9 scale) IPOHE ([9]; 400 g/ha): 9 | herbicidal effect (0-9 scale) GALAP ([10]; 100 g/ha): 2 | herbicidal effect (0-9 scale) GALAP ([10]; 400 g/ha): 9 | herbicidal effect (0-9 scale) TRZAW ([11]; 100 g/ha): 0 | herbicidal effect (0-9 scale) TRZAW ([11]; 400 g/ha): 0 | herbicidal effect (0-9 scale) HORVW ([12]; 100 g/ha): 0 | herbicidal effect (0-9 scale) HORVW ([12]; 400 g/ha): 1 | herbicidal effect (0-9 scale) SETVI ([13]; 100 g/ha): 7 | herbicidal effect (0-9 scale) SETVI ([13]; 400 g/ha): 9 | herbicidal effect (0-9 scale) HORVW ([14]; 100 g/ha): 3 | herbicidal effect (0-9 scale) HORVW ([14]; 400 g/ha): 3 | herbicidal effect (0-9 scale) GLXMA ([15]; 100 g/ha): 4 | herbicidal effect (0-9 scale) GLXMA ([15]; 400 g/ha): 8 | herbicidal effect (0-9 scale) GLXMA ([16]; 100 g/ha): 0 | herbicidal effect (0-9 scale) GLXMA ([16]; 400 g/ha): 0 | herbicidal effect (0-9 scale) GALAP ([17]; 100 g/ha): 5 | herbicidal effect (0-9 scale) GALAP ([17]; 400 g/ha): 8 | herbicidal effect (0-9 scale) ABUTH ([18]; 100 g/ha): 6 | herbicidal effect (0-9 scale) ABUTH ([18]; 400 g/ha): 8 | herbicidal effect (0-9 scale) STEME ([19]; 100 g/ha): 1 | herbicidal effect (0-9 scale) STEME ([19]; 400 g/ha): 4 | herbicidal effect (0-9 scale) IPOHE ([20]; 100 g/ha): 1 | herbicidal effect (0-9 scale) IPOHE ([20]; 400 g/ha): 2 | herbicidal effect (0-9 scale) ALOMY ([21]; 100 g/ha): 2 | herbicidal effect (0-9 scale) ALOMY ([21]; 400 g/ha): 4 | herbicidal effect (0-9 scale) MATIN ([22]; 100 g/ha): 1 | herbicidal effect (0-9 scale) MATIN ([22]; 400 g/ha): 5 | herbicidal effect (0-9 scale) ABUTH ([23]; 100 g/ha): 9 | herbicidal effect (0-9 scale) ABUTH ([23]; 400 g/ha): 9 | herbicidal effect (0-9 scale) MATIN ([24]; 100 g/ha): 3 | herbicidal effect (0-9 scale) MATIN ([24]; 400 g/ha): 5

Cn1c(C(F)(F)F)cc(=O)n(-n2ccc3cc([N+](=O)[O-])ccc32)c1=O [Example 4]
herbicidal effect (0-9 scale) ECHCG ([1]; 400 g/ha): 8 | herbicidal effect (0-9 scale) ECHCG ([1]; 800 g/ha): 8 | herbicidal effect (0-9 scale) TRZAW ([3]; 400 g/ha): 4 | herbicidal effect (0-9 scale) TRZAW ([3]; 800 g/ha): 4 | herbicidal effect (0-9 scale) STEME ([4]; 400 g/ha): 9 | herbicidal effect (0-9 scale) STEME ([4]; 800 g/ha): 9 | herbicidal effect (0-9 scale) ZEAMX ([5]; 400 g/ha): 6 | herbicidal effect (0-9 scale) ZEAMX ([5]; 800 g/ha): 8 | herbicidal effect (0-9 scale) ECHCG ([6]; 400 g/ha): 8 | herbicidal effect (0-9 scale) ECHCG ([6]; 800 g/ha): 9 | herbicidal effect (0-9 scale) ZEAMX ([7]; 400 g/ha): 6 | herbicidal effect (0-9 scale) ZEAMX ([7]; 800 g/ha): 8 | herbicidal effect (0-9 scale) SETVI ([8]; 400 g/ha): 9 | herbicidal effect (0-9 scale) SETVI ([8]; 800 g/ha): 9 | herbicidal effect (0-9 scale) IPOHE ([9]; 400 g/ha): 9 | herbicidal effect (0-9 scale) IPOHE ([9]; 800 g/ha): 9 | herbicidal effect (0-9 scale) GALAP ([10]; 400 g/ha): 9 | herbicidal effect (0-9 scale) GALAP ([10]; 800 g/ha): 9 | herbicidal effect (0-9 scale) TRZAW ([11]; 400 g/ha): 3 | herbicidal effect (0-9 scale) TRZAW ([11]; 800 g/ha): 6 | herbicidal effect (0-9 scale) HORVW ([12]; 400 g/ha): 5 | herbicidal effect (0-9 scale) HORVW ([12]; 800 g/ha): 7 | herbicidal effect (0-9 scale) SETVI ([13]; 400 g/ha): 9 | herbicidal effect (0-9 scale) SETVI ([13]; 800 g/ha): 9 | herbicidal effect (0-9 scale) HORVW ([14]; 400 g/ha): 5 | herbicidal effect (0-9 scale) HORVW ([14]; 800 g/ha): 6 | herbicidal effect (0-9 scale) GLXMA ([15]; 400 g/ha): 8 | herbicidal effect (0-9 scale) GLXMA ([15]; 800 g/ha): 8 | herbicidal effect (0-9 scale) GLXMA ([16]; 400 g/ha): 3 | herbicidal effect (0-9 scale) GLXMA ([16]; 800 g/ha): 3 | herbicidal effect (0-9 scale) GALAP ([17]; 400 g/ha): 8 | herbicidal effect (0-9 scale) GALAP ([17]; 800 g/ha): 9 | herbicidal effect (0-9 scale) ABUTH ([18]; 400 g/ha): 9 | herbicidal effect (0-9 scale) ABUTH ([18]; 800 g/ha): 9 | herbicidal effect (0-9 scale) STEME ([19]; 400 g/ha): 9 | herbicidal effect (0-9 scale) STEME ([19]; 800 g/ha): 9 | herbicidal effect (0-9 scale) IPOHE ([20]; 400 g/ha): 7 | herbicidal effect (0-9 scale) IPOHE ([20]; 800 g/ha): 8 | herbicidal effect (0-9 scale) ALOMY ([21]; 400 g/ha): 8 | herbicidal effect (0-9 scale) ALOMY ([21]; 800 g/ha): 9 | herbicidal effect (0-9 scale) MATIN ([22]; 400 g/ha): 9 | herbicidal effect (0-9 scale) MATIN ([22]; 800 g/ha): 9 | herbicidal effect (0-9 scale) ABUTH ([23]; 400 g/ha): 9 | herbicidal effect (0-9 scale) ABUTH ([23]; 800 g/ha): 9 | herbicidal effect (0-9 scale) MATIN ([24]; 400 g/ha): 9 | herbicidal effect (0-9 scale) MATIN ([24]; 800 g/ha): 9
